Measured values: patent US20260137703A1, “2-AMINO-PYRIDO[2,3-D]PYRIMIDIN-7(8H)-ONE AND 7-AMINO-1-PYRIMIDO[4,5-D]PYRIMIDIN-2(1 H)-ONE DERIVATIVES AS EGFR INHIBITORS FOR THE TREATMENT OF CANCER” (Cancer Research Technology Limited, priority 2022, published 2026)

How the values were obtained:
[1] = biological target: T1, Phospho-EGFR (Tyr1068) in H1975 cells (Homo sapiens, UniProt P00533, L858R/T790M); assay: HTRF pEGFR/total EGFR in H1975 cells; format: cell-based; details: ratio pEGFR/total EGFR, compound 3 hours
T1 construct: host or cells: H1975
Outline: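 Readout is the phospho-EGFR (Tyr1068) to total EGFR HTRF ratio, expressed relative to 0 μM control. Adhered H1975 cells were exposed to compound for 3 hours at 0.1% DMSO, duplicate wells, then lysed for 30 min at room temperature before two-wavelength fluorescence reading.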

[2] = biological target: T2, Phospho-EGFR (Tyr1068) in H1975 C797S cells (CRISPR-edited EGFR C797S) (Homo sapiens, UniProt P00533, C797S/L858R/T790M); assay: HTRF pEGFR/total EGFR in H1975 C797S cells; format: cell-based; details: ratio pEGFR/total EGFR, compound 3 hours
T2 construct: host or cells: H1975 C797S (CRISPR-edited)
Outline: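 Readout is the HTRF-measured Tyr1068 phospho-EGFR to total EGFR ratio, normalised to the 0 μM control as percent. Preceding this, CRISPR-edited H1975 C797S cells, plated 24 h earlier, were exposed 3 h to duplicate compound doses in medium with 0.1% DMSO, then lysed on a shaker.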

[3] = biological target: T3, Phospho-EGFR (Tyr1068) in A431 cells (Homo sapiens, UniProt P00533); assay: HTRF pEGFR/total EGFR in A431 cells with EGF stimulation; format: cell-based; details: ratio pEGFR/total EGFR, compound 2.5 hours then 100 ng/ml EGF 30 mins
T3 construct: endogenous in cells; host or cells: A431
Outline: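 Values are pEGFR(Tyr1068)/total EGFR HTRF ratios (665/620 nm) given as percent of the 0 μM control. Adhered A431 cells (20,000 per well, 24 h) had 2.5 h compound pretreatment in 0.1% DMSO, then 30 min of 100 ng/ml EGF before lysis.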

[4] = biological target: CtermHisTag-mEGFR Wild type (Homo sapiens, UniProt P00533); assay: biochemical
Sequence of CtermHisTag-mEGFR Wild type (P00533 whole entry): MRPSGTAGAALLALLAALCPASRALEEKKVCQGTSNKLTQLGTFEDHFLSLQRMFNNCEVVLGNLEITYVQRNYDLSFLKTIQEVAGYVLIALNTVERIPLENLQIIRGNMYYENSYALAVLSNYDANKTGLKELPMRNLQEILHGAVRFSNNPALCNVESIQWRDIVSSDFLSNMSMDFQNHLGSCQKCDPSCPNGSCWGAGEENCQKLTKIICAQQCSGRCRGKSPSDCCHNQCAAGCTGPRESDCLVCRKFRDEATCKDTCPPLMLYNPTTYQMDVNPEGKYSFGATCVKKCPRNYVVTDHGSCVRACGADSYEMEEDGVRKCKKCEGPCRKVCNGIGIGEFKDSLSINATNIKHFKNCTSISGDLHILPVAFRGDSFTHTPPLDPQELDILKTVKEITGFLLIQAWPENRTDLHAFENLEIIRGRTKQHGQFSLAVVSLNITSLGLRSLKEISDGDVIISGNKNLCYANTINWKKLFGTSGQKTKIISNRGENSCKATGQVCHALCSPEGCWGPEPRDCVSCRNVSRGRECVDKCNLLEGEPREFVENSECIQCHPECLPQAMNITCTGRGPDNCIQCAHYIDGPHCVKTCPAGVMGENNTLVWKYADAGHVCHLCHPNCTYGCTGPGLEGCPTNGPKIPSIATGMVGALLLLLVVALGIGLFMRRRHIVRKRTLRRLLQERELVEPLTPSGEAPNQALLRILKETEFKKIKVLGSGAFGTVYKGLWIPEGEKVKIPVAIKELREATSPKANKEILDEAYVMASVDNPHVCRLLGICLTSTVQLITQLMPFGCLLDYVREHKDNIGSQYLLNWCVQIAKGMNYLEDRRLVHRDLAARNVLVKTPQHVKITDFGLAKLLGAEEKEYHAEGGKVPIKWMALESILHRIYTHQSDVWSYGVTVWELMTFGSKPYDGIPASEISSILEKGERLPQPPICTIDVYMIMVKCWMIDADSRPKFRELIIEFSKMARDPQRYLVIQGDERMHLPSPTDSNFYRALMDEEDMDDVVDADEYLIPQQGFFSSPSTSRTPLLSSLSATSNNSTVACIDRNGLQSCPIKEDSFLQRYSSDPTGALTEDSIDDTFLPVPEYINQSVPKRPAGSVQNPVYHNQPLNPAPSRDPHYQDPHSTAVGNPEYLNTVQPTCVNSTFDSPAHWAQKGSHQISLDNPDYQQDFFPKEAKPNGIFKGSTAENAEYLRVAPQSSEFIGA

T3 sequence (P00533 25-1210): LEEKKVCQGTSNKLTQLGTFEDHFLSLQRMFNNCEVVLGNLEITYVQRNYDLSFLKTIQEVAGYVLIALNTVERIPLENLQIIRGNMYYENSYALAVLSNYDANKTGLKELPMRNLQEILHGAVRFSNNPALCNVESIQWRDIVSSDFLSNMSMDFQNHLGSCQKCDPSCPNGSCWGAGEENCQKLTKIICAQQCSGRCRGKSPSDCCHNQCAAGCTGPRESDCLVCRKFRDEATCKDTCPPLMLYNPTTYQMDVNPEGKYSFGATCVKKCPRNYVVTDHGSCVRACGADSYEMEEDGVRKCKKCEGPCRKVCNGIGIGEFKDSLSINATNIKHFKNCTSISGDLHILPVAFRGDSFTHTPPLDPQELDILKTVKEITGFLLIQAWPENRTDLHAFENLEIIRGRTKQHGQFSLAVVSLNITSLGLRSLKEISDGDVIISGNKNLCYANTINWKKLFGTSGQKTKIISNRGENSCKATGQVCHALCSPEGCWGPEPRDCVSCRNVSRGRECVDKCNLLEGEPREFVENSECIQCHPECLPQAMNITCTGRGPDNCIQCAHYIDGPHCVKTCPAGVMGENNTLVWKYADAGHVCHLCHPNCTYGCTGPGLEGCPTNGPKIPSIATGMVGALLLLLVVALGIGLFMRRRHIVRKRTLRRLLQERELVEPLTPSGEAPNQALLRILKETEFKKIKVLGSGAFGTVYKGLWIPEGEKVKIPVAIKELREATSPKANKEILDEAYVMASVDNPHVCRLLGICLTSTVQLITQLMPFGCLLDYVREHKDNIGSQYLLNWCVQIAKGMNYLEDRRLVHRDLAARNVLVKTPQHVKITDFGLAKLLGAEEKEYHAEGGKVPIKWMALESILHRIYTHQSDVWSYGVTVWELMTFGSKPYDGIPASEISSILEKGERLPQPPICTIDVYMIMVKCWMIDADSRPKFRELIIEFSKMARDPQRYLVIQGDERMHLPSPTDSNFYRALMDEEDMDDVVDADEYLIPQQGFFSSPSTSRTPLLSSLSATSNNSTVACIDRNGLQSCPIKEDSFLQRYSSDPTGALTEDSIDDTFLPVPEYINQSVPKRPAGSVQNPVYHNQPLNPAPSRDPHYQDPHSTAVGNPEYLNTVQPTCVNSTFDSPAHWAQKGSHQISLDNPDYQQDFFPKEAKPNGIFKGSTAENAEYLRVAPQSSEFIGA
T2 sequence (P00533 25-1210 T790M/C797S/L858R): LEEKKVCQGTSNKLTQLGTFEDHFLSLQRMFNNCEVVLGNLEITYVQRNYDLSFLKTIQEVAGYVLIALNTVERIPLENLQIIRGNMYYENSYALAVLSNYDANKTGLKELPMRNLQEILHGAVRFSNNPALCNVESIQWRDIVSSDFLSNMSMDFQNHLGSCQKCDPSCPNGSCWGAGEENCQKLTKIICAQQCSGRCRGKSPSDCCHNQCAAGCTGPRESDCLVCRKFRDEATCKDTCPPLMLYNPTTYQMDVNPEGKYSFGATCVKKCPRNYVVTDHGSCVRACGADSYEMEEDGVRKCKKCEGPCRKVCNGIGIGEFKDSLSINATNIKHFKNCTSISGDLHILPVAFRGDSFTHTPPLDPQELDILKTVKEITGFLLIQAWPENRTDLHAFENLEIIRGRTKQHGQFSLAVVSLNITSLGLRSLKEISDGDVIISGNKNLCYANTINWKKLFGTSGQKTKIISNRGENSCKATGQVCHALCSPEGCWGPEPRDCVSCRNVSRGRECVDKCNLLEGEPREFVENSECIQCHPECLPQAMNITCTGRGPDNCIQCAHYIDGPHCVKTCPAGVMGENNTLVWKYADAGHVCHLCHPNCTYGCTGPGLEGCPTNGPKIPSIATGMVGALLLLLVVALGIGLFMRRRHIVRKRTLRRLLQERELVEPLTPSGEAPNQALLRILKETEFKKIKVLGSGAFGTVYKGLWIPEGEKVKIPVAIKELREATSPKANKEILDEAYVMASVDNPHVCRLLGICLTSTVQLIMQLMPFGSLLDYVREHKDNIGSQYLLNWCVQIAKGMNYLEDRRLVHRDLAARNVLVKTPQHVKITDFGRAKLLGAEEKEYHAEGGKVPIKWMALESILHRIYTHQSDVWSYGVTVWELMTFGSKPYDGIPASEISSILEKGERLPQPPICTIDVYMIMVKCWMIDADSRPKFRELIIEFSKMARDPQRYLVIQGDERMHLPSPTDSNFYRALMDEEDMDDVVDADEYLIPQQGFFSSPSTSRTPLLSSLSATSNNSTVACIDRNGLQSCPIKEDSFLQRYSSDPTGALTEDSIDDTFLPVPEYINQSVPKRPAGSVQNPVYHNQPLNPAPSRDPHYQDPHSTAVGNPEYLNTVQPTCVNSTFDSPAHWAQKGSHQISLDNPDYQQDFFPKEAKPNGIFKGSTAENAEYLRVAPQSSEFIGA
T1 sequence (P00533 25-1210 T790M/L858R): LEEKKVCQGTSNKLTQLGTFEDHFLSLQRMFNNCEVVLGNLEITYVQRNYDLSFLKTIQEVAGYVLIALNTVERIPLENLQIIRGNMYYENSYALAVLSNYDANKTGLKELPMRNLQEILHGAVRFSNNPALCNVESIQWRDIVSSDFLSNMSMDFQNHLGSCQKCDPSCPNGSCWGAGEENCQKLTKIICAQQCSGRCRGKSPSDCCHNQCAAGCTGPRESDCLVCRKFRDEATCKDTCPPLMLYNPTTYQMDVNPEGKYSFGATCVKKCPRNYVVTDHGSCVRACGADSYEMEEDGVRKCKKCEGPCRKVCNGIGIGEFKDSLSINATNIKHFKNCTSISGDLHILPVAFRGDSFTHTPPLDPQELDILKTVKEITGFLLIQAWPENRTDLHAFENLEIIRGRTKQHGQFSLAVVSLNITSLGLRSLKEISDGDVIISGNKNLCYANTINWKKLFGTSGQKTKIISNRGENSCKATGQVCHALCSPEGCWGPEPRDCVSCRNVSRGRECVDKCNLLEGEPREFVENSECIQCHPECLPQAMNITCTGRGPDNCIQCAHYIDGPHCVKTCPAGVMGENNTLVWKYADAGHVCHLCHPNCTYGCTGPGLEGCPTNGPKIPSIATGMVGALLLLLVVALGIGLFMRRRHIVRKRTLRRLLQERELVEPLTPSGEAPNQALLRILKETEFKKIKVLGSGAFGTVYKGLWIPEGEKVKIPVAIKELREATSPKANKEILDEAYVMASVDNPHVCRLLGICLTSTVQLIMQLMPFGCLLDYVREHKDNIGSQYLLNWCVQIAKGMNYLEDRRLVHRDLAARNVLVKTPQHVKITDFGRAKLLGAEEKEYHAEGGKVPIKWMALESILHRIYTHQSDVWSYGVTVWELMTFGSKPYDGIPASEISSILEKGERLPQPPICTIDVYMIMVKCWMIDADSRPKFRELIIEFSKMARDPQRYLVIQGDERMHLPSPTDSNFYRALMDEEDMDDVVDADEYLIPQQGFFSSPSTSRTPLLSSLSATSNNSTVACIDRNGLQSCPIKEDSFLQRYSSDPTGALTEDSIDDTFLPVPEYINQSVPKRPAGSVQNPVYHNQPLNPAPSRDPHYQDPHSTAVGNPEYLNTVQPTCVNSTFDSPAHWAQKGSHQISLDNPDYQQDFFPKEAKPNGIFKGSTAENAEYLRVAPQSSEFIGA

Structure (SMILES) | IC50 [1] [nM] | IC50 [2] [nM] | IC50 [3] [nM] | IC50 [4] [nM]
C#Cc1cc(=O)n(C2CCCC2)c2nc(Nc3cccc(N(C)[C@H]4CC[C@H](CS(C)(=O)=O)CC4)c3)ncc12 [Example 206] | > 3000 | > 3000 | > 3000 | < 1000
C#Cc1cc(=O)n(C)c2nc(Nc3ccc(N4CCN(C)CC4)c(S(=O)(=O)NCC4CCCC4)c3)ncc12 [Example 218] | 1000 to 3000 | > 3000 | > 3000 | < 1000
C#Cc1cc(=O)n(C)c2nc(Nc3ccc(N4CCN(C)CC4)c(NC(=O)NC4CCCC4)c3)ncc12 [Example 219, 3-Cyclopentyl-1-[5-({5-ethynyl-8-methyl-7-oxopyrido[2,3-d]pyrimidin-2-yl}amino)-2-(4-methylpiperazin-1-yl)phenyl]urea] | 500 to 1000 | 500 to 1000 | > 3000 | < 1000
C#Cc1cc(=O)n(C)c2nc(Nc3ccc(N4CCN(C)CC4)c(C(=O)NCC4CCCC4)c3)ncc12 [Example 221, N-(Cyclopentylmethyl)-5-({5-ethynyl-8-methyl-7-oxopyrido[2,3-d]pyrimidin-2-yl}amino)-2-(4-methylpiperazin-1-yl)benzamide] | 500 to 1000 | 1000 to 3000 | > 3000 | 1000 to 10000
C#Cc1cc(=O)n2c3nc(ncc13)Nc1ccc(N3CCN(C)CC3)c(c1)NC(=O)CCC2 [Example 222, 1^5-ethynyl-3^4-(4-methylpiperazin-1-yl)-1^7,1^8-dihydro-2,4-diaza-1(2,8)-pyrido[2,3-d]pyrimidina-3(1,3)-benzenacyclooctaphane-1^7,5-dione] | < 500 | < 500 | 1000 to 3000 | < 1000
C#Cc1cc(=O)n2c3nc(ncc13)Nc1ccc(N3CCN(C)CC3)c(c1)CN(C)C(=O)CC2 [Example 223, 1^5-Ethynyl-5-methyl-3^4-(4-methylpiperazin-1-yl)-1^7,1^8-dihydro-2,5-diaza-1(2,8)-pyrido[2,3-d]pyrimidina-3(1,3)-benzenacyclooctaphane-1^7,6-dione] | < 500 | < 500 | 1000 to 3000 | < 1000
C#Cc1cc(=O)n2c3nc(ncc13)Nc1ccc(N3CCN(C)CC3)c(c1)C(=O)NCCC2 [Example 224, 1^5-ethynyl-3^4-(4-methylpiperazin-1-yl)-1^7,1^8-dihydro-2,5-diaza-1(2,8)-pyrido[2,3-d]pyrimidina-3(1,3)-benzenacyclooctaphane-1^7,4-dione] | > 3000 | > 3000 | > 3000 | > 10000
C#Cc1cc(=O)n2c3nc(ncc13)Nc1ccc(N3CCN(C)CC3)c(c1)N(C)C(=O)CCC2 [Example 225, 1^5-Ethynyl-4-methyl-3^4-(4-methylpiperazin-1-yl)-1^7,1^8-dihydro-2,4-diaza-1(2,8)-pyrido[2,3-d]pyrimidina-3(1,3)-benzenacyclooctaphane-1^7,5-dione] | 1000 to 3000 | 1000 to 3000 | > 3000 | > 10000
C#Cc1cc(=O)n2c3nc(ncc13)Nc1ccc(N3CCN(C)CC3)c(c1)CN(C)CCC2 [Example 226, 1^5-Ethynyl-5-methyl-3^4-(4-methylpiperazin-1-yl)-1^7,1^8-dihydro-2,5-diaza-1(2,8)-pyrido[2,3-d]pyrimidina-3(1,3)-benzenacyclooctaphan-1^7-one] | < 500 | < 500 | > 3000 | < 1000
C#Cc1cc(=O)n2c3nc(ncc13)Nc1ccc(N3CCN(C)CC3)c(c1)CCNC(=O)C2 [Example 227, 1^5-Ethynyl-3^4-(4-Methylpiperazin-1-yl)-1^7,1^8-dihydro-2,6-diaza-1(2,8)-pyrido[2,3-d]pyrimidina-3(1,3)-benzenacyclooctaphane-1^7,7-dione] | > 3000 | > 3000 | > 3000 | 1000 to 10000
C#Cc1cc(=O)n2c3nc(ncc13)Nc1ccc(N3CCN(C)CC3)c(c1)OCCCCC2C (centres unmarked) [Example 228, 1^5-Ethynyl-9-methyl-3^4-(4-methylpiperazin-1-yl)-1^7,1^8-dihydro-4-oxa-2-aza-1(2,8)-pyrido[2,3-d]pyrimidina-3(1,3)-benzenacyclononaphan-17-one] | < 500 | < 500 | > 3000 | 1000 to 10000

The remaining lines, values ahead:

IC50 [1] [nM] | IC50 [2] [nM] | IC50 [3] [nM] | IC50 [4] [nM] | Structure (SMILES)
< 500 | < 500 | 500 to 1000 | < 1000 | C#Cc1cc(=O)n(C)c2nc(Nc3ccc(N4CCN(C)CC4)c(OCCC)c3)ncc12 [Example 207, 5-Ethynyl-8-methyl-2-((4-(4-methylpiperazin-1-yl)-3-propoxyphenyl)amino)pyrido[2,3-d]pyrimidin-7(8H)-one]
< 500 | < 500 | 1000 to 3000 | < 1000 | C#Cc1cc(=O)n(C)c2nc(Nc3ccc(N4CCN(C)CC4)c(OC)c3)ncc12 [Example 208, 5-Ethynyl-2-((3-methoxy-4-(4-methylpiperazin-1-yl)phenyl)amino)-8-methylpyrido[2,3-d]pyrimidin-7(8H)-one]
< 500 | < 500 | < 500 | < 1000 | C#Cc1cc(=O)n(C)c2nc(Nc3ccc(N4CCN(C)CC4)c(OCCC4CCCC4)c3)ncc12 [Example 209, 2-((3-(2-Cyclopentylethoxy)-4-(4-methylpiperazin-1-yl)phenyl)amino)-5-ethynyl-8-methylpyrido[2,3-d]pyrimidin-7(8H)-one]
< 500 | < 500 | > 3000 | < 1000 | C#Cc1cc(=O)n(Cc2ccn(C)n2)c2nc(Nc3ccc(N4CCN(C)CC4)c(OCCC4CCCC4)c3)ncc12 [Example 210, 2-((3-(2-Cyclopentylethoxy)-4-(4-methylpiperazin-1-yl)phenyl)amino)-5-ethynyl-8-((1-methyl-1H-pyrazol-3-yl)methyl)pyrido[2,3-d]pyrimidin-7(8H)-one]
< 500 | < 500 | > 3000 | < 1000 | C#Cc1cc(=O)n(C)c2nc(Nc3ccc(N4CCN(C)CC4)c(OCC4CCCC4)c3)ncc12 [Example 211, 2-((3-(Cyclopentylmethoxy)-4-(4-methylpiperazin-1-yl)phenyl)amino)-5-ethynyl-8-methylpyrido[2,3-d]pyrimidin-7(8H)-one]
< 500 | < 500 | > 3000 | < 1000 | C#Cc1cc(=O)n(C)c2nc(Nc3ccc(N4CCN(C)CC4)c(OCCCC4CCCC4)c3)ncc12 [Example 212, 2-((3-(3-Cyclopentylpropoxy)-4-(4-methylpiperazin-1-yl)phenyl)amino)-5-ethynyl-8-methylpyrido[2,3-d]pyrimidin-7(8H)-one]
< 500 | 500 to 1000 | 1000 to 3000 | < 1000 | C#Cc1cc(=O)n(C)c2nc(Nc3ccc(N4CCN(C)CC4)c(OCCC4CCCCC4)c3)ncc12 [Example 213, 2-((3-(2-Cyclohexylethoxy)-4-(4-methylpiperazin-1-yl)phenyl)amino)-5-ethynyl-8-methylpyrido[2,3-d]pyrimidin-7(8H)-one]
< 500 | < 500 | 1000 to 3000 | < 1000 | C#Cc1cc(=O)n(C)c2nc(Nc3ccc(N4CCN(C)CC4)c(OCCc4ccccc4)c3)ncc12 [Example 214, 5-Ethynyl-8-methyl-2-((4-(4-methylpiperazin-1-yl)-3-phenethoxyphenyl)amino)pyrido[2,3-d]pyrimidin-7(8H)-one]
< 500 | < 500 | 1000 to 3000 | < 1000 | C#Cc1cc(=O)n(C)c2nc(Nc3ccc(N4CCN(C)CC4)c(OC4CCCC4)c3)ncc12 [Example 215, 2-((3-(Cyclopentyloxy)-4-(4-methylpiperazin-1-yl)phenyl)amino)-5-ethynyl-8-methylpyrido[2,3-d]pyrimidin-7(8H)-one]
< 500 | < 500 | 1000 to 3000 | < 1000 | C#Cc1cc(=O)n(C)c2nc(Nc3ccc(N4CCN(C)CC4)c(OCCC(C)C)c3)ncc12 [Example 216, 5-Ethynyl-2-((3-(isopentyloxy)-4-(4-methylpiperazin-1-yl)phenyl)amino)-8-methylpyrido[2,3-d]pyrimidin-7(8H)-one]
< 500 | < 500 | 1000 to 3000 | < 1000 | C#Cc1cc(=O)n(C)c2nc(Nc3ccc(N4CCN(C)CC4)c(NC(=O)CC4CCCC4)c3)ncc12 [Example 217, 2-Cyclopentyl-N-(5-((5-ethynyl-8-methyl-7-oxo-7,8-dihydropyrido[2,3-d]pyrimidin-2-yl)amino)-2-(4-methylpiperazin-1-yl)phenyl)acetamide]
< 500 | < 500 | 1000 to 3000 | < 1000 | C#Cc1cc(=O)n(C)c2nc(Nc3ccc(N4CCN(C)CC4)c(OCCc4ccnn4C)c3)ncc12 [Example 220, 5-Ethynyl-8-methyl-2-((3-(2-(1-methyl-1H-pyrazol-5-yl)ethoxy)-4-(4-methylpiperazin-1-yl)phenyl)amino)pyrido[2,3-d]pyrimidin-7(8H)-one]
